In patent publication US20200038513A1, “MODULATORS OF FAK PROTEOLYSIS AND ASSOCIATED METHODS OF USE” (ARVINAS OPERATIONS, INC., priority 2018, published 2020):
Like-named read-outs stand apart in the source and are kept apart here.

Experiment: Pharmacokinetics of intraperitoneal or intravenous injection in CD1 mice
Type: in vivo
Settings: CD1 mice plasma; for concentration at 0.25 h / concentration at 0.5 h / concentration at 1 h / concentration at 2 h / concentration at 4 h / concentration at 0.033 h / concentration at 0.083 h: male, CD1, mouse, plasma
Procedure: The pharmacokinetics of exemplary compounds 103, 107, 100, 101, and 102 was examined for intraperitoneal and intravenous administration. The desired serial concentrations of working solutions were achieved by diluting stock solution (1 mg/mL in DMSO) of analyte with methanol. In particular, 20 μL of working solutions (1, 2, 5, 10, 50, 100, 500, 1000, 2000 ng/mL) were added to 20 μL of the blank CD1 mice plasma to achieve calibration standards of 1-2000 ng/mL (1, 2, 5, 10, 50, 100, 500, 1000, 2000 ng/mL) in a total volume of 40 μL. Dose of IV and IP were diluted by 1000 fold and 10000 with methanol, 20 μL of the diluted dose solutions were added to 20 μL of the blank CD1 mice plasma to achieve dose samples. Next, 40 μL standards and 40 μL dose samples were added to 20 μL of IS (100 ng/mL) and 200 μL of acetonitrile for precipitating protein respectively. Then the samples were vortexed for 30 seconds. After centrifugation at 4 degree Celsius, 4000 rpm for 15 minutes, the supernatant was diluted 3 times with water. 10 μL of the diluted supernatant was injected into the LC/MS/MS system for quantitative analysis.
Exemplary compounds 103, 107, 100, 101, and 102 were administered intravenously (5 second injection of 10% HP-b-CD and 40 mM sodium acetate and 40 mM NaCl in water, pH4.5) or intraperitoneally (5% EtOH and 5% Solutol HS15 in D5W(ESD-2)) to 6-8 week old male CD1 mice (3 mice per treatment group for a total of 12 mice) at the time points indicated below in Table 7. The mice had free access to food and water.
Dorsal metatarsal vein samples (30 μL), except that the final sample was acquired via a heart puncture, were taken from the mice at the same the administration time points as shown in Table 7.

[1] = iv, 1 mg/kg, IV 1.0 mg/kg, read-out: Conc. (ng/mL) Mouse 1
[2] = iv, 1 mg/kg, IV 1.0 mg/kg, read-out: Conc. (ng/mL) Mouse 2
[3] = iv, 1 mg/kg, IV 1.0 mg/kg, read-out: Conc. (ng/mL) Mouse 3
[4] = iv, 1 mg/kg, IV 1.0 mg/kg, read-out: Mean

- Conc. (ng/mL) Mouse 1 (IP 10 mg/kg, 8 h): BLOQ
- Conc. (ng/mL) Mouse 2 (IP 10 mg/kg, 8 h): BLOQ
- Conc. (ng/mL) Mouse 3 (IP 10 mg/kg, 8 h): BLOQ
- Conc. (ng/mL) Mouse 1 (IP 10 mg/kg, 24 h): BLOQ
- Conc. (ng/mL) Mouse 2 (IP 10 mg/kg, 24 h): BLOQ
- Conc. (ng/mL) Mouse 3 (IP 10 mg/kg, 24 h): BLOQ
- Conc. (ng/mL) Mouse 1 (IV 1.0 mg/kg, 0.25 h): BLOQ
- Conc. (ng/mL) Mouse 1 (IV 1.0 mg/kg, 0.5 h): BLOQ
- Conc. (ng/mL) Mouse 2 (IV 1.0 mg/kg, 0.5 h): BLOQ
- Conc. (ng/mL) Mouse 3 (IV 1.0 mg/kg, 0.5 h): BLOQ
- Conc. (ng/mL) Mouse 1 (IV 1.0 mg/kg, 1 h): BLOQ
- Conc. (ng/mL) Mouse 2 (IV 1.0 mg/kg, 1 h): BLOQ
- Conc. (ng/mL) Mouse 3 (IV 1.0 mg/kg, 1 h): BLOQ
- Conc. (ng/mL) Mouse 1 (IV 1.0 mg/kg, 2 h): BLOQ
- Conc. (ng/mL) Mouse 2 (IV 1.0 mg/kg, 2 h): BLOQ
- Conc. (ng/mL) Mouse 3 (IV 1.0 mg/kg, 2 h): BLOQ
- Conc. (ng/mL) Mouse 1 (IV 1.0 mg/kg, 4 h): BLOQ
- Conc. (ng/mL) Mouse 2 (IV 1.0 mg/kg, 4 h): BLOQ
- Conc. (ng/mL) Mouse 3 (IV 1.0 mg/kg, 4 h): BLOQ
- Conc. (ng/mL) Mouse 1 (IV 1.0 mg/kg, 8 h): BLOQ
- Conc. (ng/mL) Mouse 2 (IV 1.0 mg/kg, 8 h): BLOQ
- Conc. (ng/mL) Mouse 3 (IV 1.0 mg/kg, 8 h): BLOQ
- Conc. (ng/mL) Mouse 1 (IV 1.0 mg/kg, 24 h): BLOQ
- Conc. (ng/mL) Mouse 2 (IV 1.0 mg/kg, 24 h): BLOQ
- Conc. (ng/mL) Mouse 3 (IV 1.0 mg/kg, 24 h): BLOQ
- concentration at 0.25 h (ip, 10 mg/kg, IP 10 mg/kg, 0.25 h, read-out: Conc. (ng/mL) Mouse 1): 44.8 ng/mL
- concentration at 0.25 h (ip, 10 mg/kg, IP 10 mg/kg, 0.25 h, read-out: Conc. (ng/mL) Mouse 2): 42.6 ng/mL
- concentration at 0.25 h (ip, 10 mg/kg, IP 10 mg/kg, 0.25 h, read-out: Conc. (ng/mL) Mouse 3): 111 ng/mL
- concentration at 0.25 h (ip, 10 mg/kg, IP 10 mg/kg, 0.25 h, read-out: Mean): 66 ng/mL
- concentration at 0.5 h (ip, 10 mg/kg, IP 10 mg/kg, 0.5 h, read-out: Conc. (ng/mL) Mouse 1): 68.4 ng/mL
- concentration at 0.5 h (ip, 10 mg/kg, IP 10 mg/kg, 0.5 h, read-out: Conc. (ng/mL) Mouse 2): 41.9 ng/mL
- concentration at 0.5 h (ip, 10 mg/kg, IP 10 mg/kg, 0.5 h, read-out: Conc. (ng/mL) Mouse 3): 69.3 ng/mL
- concentration at 0.5 h (ip, 10 mg/kg, IP 10 mg/kg, 0.5 h, read-out: Mean): 59.9 ng/mL
- concentration at 1 h (ip, 10 mg/kg, IP 10 mg/kg, 1 h, read-out: Conc. (ng/mL) Mouse 1): 64.7 ng/mL
- concentration at 1 h (ip, 10 mg/kg, IP 10 mg/kg, 1 h, read-out: Conc. (ng/mL) Mouse 2): 54.2 ng/mL
- concentration at 1 h (ip, 10 mg/kg, IP 10 mg/kg, 1 h, read-out: Conc. (ng/mL) Mouse 3): 199 ng/mL
- concentration at 1 h (ip, 10 mg/kg, IP 10 mg/kg, 1 h, read-out: Mean): 106 ng/mL
- concentration at 2 h (ip, 10 mg/kg, IP 10 mg/kg, 2 h, read-out: Conc. (ng/mL) Mouse 1): 53.2 ng/mL
- concentration at 2 h (ip, 10 mg/kg, IP 10 mg/kg, 2 h, read-out: Conc. (ng/mL) Mouse 2): 38.1 ng/mL
- concentration at 2 h (ip, 10 mg/kg, IP 10 mg/kg, 2 h, read-out: Conc. (ng/mL) Mouse 3): 59.8 ng/mL
- concentration at 2 h (ip, 10 mg/kg, IP 10 mg/kg, 2 h, read-out: Mean): 50.4 ng/mL
- concentration at 4 h (ip, 10 mg/kg, IP 10 mg/kg, 4 h, read-out: Conc. (ng/mL) Mouse 1): 4.11 ng/mL
- concentration at 4 h (ip, 10 mg/kg, IP 10 mg/kg, 4 h, read-out: Conc. (ng/mL) Mouse 2): 14.9 ng/mL
- concentration at 4 h (ip, 10 mg/kg, IP 10 mg/kg, 4 h, read-out: Conc. (ng/mL) Mouse 3): 22.2 ng/mL
- concentration at 4 h (ip, 10 mg/kg, IP 10 mg/kg, 4 h, read-out: Mean): 13.7 ng/mL
- concentration at 0.033 h [1]: 31.4 ng/mL
- concentration at 0.033 h [2]: 31.6 ng/mL
- concentration at 0.033 h [3]: 34.3 ng/mL
- concentration at 0.033 h [4]: 32.4 ng/mL
- concentration at 0.083 h [1]: 8.44 ng/mL
- concentration at 0.083 h [2]: 9.65 ng/mL
- concentration at 0.083 h [3]: 9.61 ng/mL
- concentration at 0.083 h [4]: 9.23 ng/mL
- concentration at 0.25 h (iv, 1 mg/kg, IV 1.0 mg/kg, 0.25 h, read-out: Conc. (ng/mL) Mouse 2): 2.25 ng/mL
- concentration at 0.25 h (iv, 1 mg/kg, IV 1.0 mg/kg, 0.25 h, read-out: Conc. (ng/mL) Mouse 3): 1.73 ng/mL
- concentration at 0.25 h (iv, 1 mg/kg, IV 1.0 mg/kg, 0.25 h, read-out: Mean): 1.99 ng/mL
SMILES: CN(c1cccc(CNc2nc(Nc3ccc(OCCCOCCC(=O)NCCOc4cccc5c4C(=O)N(C4CCC(=O)NC4=O)C5=O)cc3)ncc2C(F)(F)F)c1)S(C)(=O)=O (centres unmarked) [Compound 107]
